Assay results taken from ChEMBL document CHEMBL1201862, “PubChem BioAssay data set” (2004).
The source made the active and inactive calls.

How the values were obtained:
CAAX prenyl protease 2 = molecular target: T1, CAAX prenyl protease 2 (Saccharomyces cerevisiae S288c, UniProt Q03530); assay type: biochemical
T1 sequence (Q03530 whole entry): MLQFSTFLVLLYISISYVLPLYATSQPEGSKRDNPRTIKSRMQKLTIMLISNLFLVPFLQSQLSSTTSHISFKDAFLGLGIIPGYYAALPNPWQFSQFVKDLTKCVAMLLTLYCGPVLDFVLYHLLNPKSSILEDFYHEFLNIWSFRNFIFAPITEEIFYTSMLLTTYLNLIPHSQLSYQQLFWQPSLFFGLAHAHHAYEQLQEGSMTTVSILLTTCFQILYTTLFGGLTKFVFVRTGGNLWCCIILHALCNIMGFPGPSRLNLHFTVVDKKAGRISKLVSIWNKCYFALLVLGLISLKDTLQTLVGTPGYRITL

[1] = mammalian cell cytotoxicity, dose response, cytotoxicity control, plate reader, cherry-pick samples (AID 504397); assay type: functional, cell-based
[2] = Luminescence Cell-Based Dose Retest to Confirm Inhibitors of Cancer Stem Cells. [Related pubchem assays (depositor defined):AID2717, AID2721]; assay type: functional; details: Homo sapiens
[3] = molecular target: Intestinal-type alkaline phosphatase (Homo sapiens, UniProt P09923); assay: inhibition of human intestinal alkaline phosphatase – biochemical, dose response (AID 488876); assay type: functional
SUMO-activating enzyme [4] = molecular target: T2, SUMO-activating enzyme (Homo sapiens, UniProt Q9UBT2); assay: inhibitors of in vitro SUMOylation cascade, primary screen, biochemical, HTRF, uHTS (AID 2006); assay type: protein-complex assay
[5] = molecular target: Intestinal-type alkaline phosphatase (Mus musculus, UniProt P24822); assay: PubChem AID 488785; assay type: functional
SUMO-activating enzyme [6] = molecular target: T2, SUMO-activating enzyme; assay: SUMOylation inhibitor hit validation, confirmation, SUMOylation inhibitor project, biochemical, AlphaScreen (AID 2018); assay type: functional
[7] = molecular target: T3, Alkaline phosphatase, tissue-nonspecific isozyme (Homo sapiens, UniProt P05186); assay: TNAP enzyme inhibition by screening hits, dose response, selectivity assay for mouse IAP inhibitor project, biochemical, human TNAP, uHTS hits (AID 488906); assay type: functional
T3 sequence (P05186 whole entry): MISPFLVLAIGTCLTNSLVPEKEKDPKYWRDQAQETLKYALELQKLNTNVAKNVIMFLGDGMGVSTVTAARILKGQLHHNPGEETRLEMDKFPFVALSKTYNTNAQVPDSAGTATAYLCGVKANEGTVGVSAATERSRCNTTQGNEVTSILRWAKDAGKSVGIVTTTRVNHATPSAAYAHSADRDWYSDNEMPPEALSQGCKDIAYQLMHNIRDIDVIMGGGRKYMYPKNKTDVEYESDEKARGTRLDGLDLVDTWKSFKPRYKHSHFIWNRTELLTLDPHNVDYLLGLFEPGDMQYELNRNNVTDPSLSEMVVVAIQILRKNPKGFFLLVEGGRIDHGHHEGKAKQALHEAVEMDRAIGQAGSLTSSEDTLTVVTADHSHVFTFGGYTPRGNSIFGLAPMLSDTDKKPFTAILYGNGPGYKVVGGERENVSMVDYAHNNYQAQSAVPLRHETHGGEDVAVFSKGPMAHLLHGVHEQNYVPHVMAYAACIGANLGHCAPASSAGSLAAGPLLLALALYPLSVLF

Large T antigen = Large T antigen (Simian virus 40, UniProt P03070); assay type: functional, Betapolyomavirus macacae;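 also: Confirmatory-stage PubChem screen for compounds that inhibit SV40 T antigen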
[8] = inhibitors of SNCA 5'UTR-driven reporter translation, confirmation, H4 neuroglioma cells, luminescence (AID 1988); assay type: functional, cell-based
[9] = Luminescence Cell-Based Dose Confirmation HTS to Identify Inhibitors of 5'UTR Stem-Loop Driven Alpha-Synuclein mRNA Translation in H4 Neuroglioblastoma Cells. [Related pubchem assays: 1827 (Project Summary), 1813 (Primary HTS)]; assay type: functional
[10] = Luminescence Cell-Based Dose Response HTS to Identify Activators of 5'UTR Stem-Loop Driven Prion Protein mRNA Translation in H4-C Neuroglioblastoma Cells. [Related pubchem assays: 1829 (Project Summary), 1814 (Primary HTS)]; assay type: functional
[11] = Luminescence Cell-Based Dose Response HTS to Identify Activators of Luciferase Translation or Activity in H4-C Neuroglioblastoma Cells. [Related pubchem assays: 1829 (Project Summary), 1814 (Primary HTS)]; assay type: functional
[12] = Luminescence Cell-Based Dose Response HTS to Identify Inhibitors of Luciferase Translation or Activity in H4-C Neuroglioblastoma Cells. [Related pubchem assays: 1813 (Primary HTS), 1827 (Project Summary)]; assay type: functional
[13] = Luminescence Cell-Based Dose HTS Response to Identify Inhibitors of 5'UTR Stem-Loop Driven Prion Protein mRNA Translation in H4-C Neuroglioblastoma Cells. [Related pubchem assays (depositor defined):AID1814, AID1827]; assay type: functional
[14] = Luminescence Cell-Based Dose Retest to Confirm Activators of 5'UTR Stem-Loop Driven Alpha-Synuclein mRNA Translation in H4 Neuroglioblastoma Cells. [Related pubchem assays (depositor defined):AID1813, AID1829]; assay type: functional
[15] = inhibitors of firefly luciferase expression or activity, dose response, H4 neuroglioma cells, luminescence (AID 1990); assay type: functional, cell-based
[16] = Luminescence Cell-Based Dose Response HTS to Identify Inhibitors of 5'UTR Stem-Loop Driven Prion Protein mRNA Translation in H4 Neuroglioblastoma Cells. [Related pubchem assays: 1827 (Project Summary), 1813 (Primary HTS)]; assay type: functional
[17] = molecular target: T4, RNA-binding protein pos-1 (Caenorhabditis elegans, UniProt G5EF15); assay: inhibitors of POS-1/mex-3 RNA binding, dose response, biochemical, fluorescence polarization (AID 1964);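 also: purified POS-1 fused to maltose binding protein made in E. coli; potency of compounds blocking POS-1 binding to fluorescent RNA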
T4 sequence (G5EF15 whole entry): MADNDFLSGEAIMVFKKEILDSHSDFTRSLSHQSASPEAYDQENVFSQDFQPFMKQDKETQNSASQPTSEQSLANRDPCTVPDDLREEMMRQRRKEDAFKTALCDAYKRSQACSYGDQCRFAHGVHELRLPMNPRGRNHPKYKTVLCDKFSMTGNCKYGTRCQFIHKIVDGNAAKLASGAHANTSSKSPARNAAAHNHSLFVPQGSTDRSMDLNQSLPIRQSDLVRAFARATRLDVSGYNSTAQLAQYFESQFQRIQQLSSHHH

[18] = molecular target: T5, Zinc finger protein mex-5 (Caenorhabditis elegans, UniProt Q9XUB2); assay: MEX-5/TCR-2 RNA interaction inhibitors, dose response, biochemical, C. elegans, fluorescence polarization (AID 1960)
T5 sequence (Q9XUB2 whole entry): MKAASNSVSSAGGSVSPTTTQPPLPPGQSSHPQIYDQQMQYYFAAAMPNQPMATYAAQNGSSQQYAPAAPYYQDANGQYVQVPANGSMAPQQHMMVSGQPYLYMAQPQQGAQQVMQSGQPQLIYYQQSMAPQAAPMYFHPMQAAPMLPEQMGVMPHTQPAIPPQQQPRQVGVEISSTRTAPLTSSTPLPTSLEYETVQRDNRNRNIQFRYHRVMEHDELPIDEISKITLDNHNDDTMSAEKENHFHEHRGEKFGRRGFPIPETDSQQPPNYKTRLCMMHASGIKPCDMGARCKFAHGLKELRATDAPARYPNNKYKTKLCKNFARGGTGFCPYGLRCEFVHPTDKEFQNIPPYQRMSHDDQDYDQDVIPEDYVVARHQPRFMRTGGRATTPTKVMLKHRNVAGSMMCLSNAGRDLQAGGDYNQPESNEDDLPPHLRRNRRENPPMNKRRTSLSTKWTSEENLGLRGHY

[19] = molecular target: T6, Sentrin-specific protease 8 (Homo sapiens, UniProt Q96LD8); assay type: functional
T6 sequence (Q96LD8 whole entry): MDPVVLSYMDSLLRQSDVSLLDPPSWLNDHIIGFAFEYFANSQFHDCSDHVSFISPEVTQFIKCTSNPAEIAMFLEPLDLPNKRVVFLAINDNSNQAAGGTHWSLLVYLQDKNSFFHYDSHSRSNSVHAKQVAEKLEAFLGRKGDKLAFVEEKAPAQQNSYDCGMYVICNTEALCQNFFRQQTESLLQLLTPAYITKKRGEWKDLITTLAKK

[20] = molecular target: Tyrosyl-DNA phosphodiesterase 2 (Homo sapiens, UniProt O95551); assay: human TDP2 enzyme inhibitors, dose response, biochemical, epi absorbance, IC50 (AID 743297)
[21] = molecular target: T6, Sentrin-specific protease 8; assay type: functional; remark: listed apart in the source
SUMO E1/E2 = SUMO E1/E2 (Homo sapiens, UniProt P63279+Q9UBE0+Q9UBT2); assay: SAR analysis of SUMOylation using HTRF in an in-Vitro dose response assay. [Related pubchem assays (depositor defined):AID2006, AID2011, AID2018, AID2069, AID2658]; assay type: functional
[22] = molecular target: Lysine-specific demethylase 4A (Homo sapiens, UniProt O75164); assay: JMJD2A histone demethylase inhibitors, dose response, selectivity assay for GASC-1 inhibitor project, biochemical, DELFIA europium, cherry-picked samples (AID 488840)
[23] = molecular target: Lysine-specific demethylase 4C (Homo sapiens, UniProt Q9H3R0); assay: GASC-1 (JMJD2C) histone demethylase inhibitors, dose response, biochemical, DELFIA europium, cherry-picked samples (AID 488835); assay type: functional
[24] = molecular target: Kappa-type opioid receptor (Homo sapiens, UniProt P41145); assay: SAR analysis of small molecule agonists of the kappa opioid receptor via a luminescent beta-arrestin assay - Set 3. [Related pubchem assays (depositor defined):AID1777, AID1785, AID1786, AID1966, AID2133, AID2136, AID2284, AID2500]; assay type: functional
[25] = decrease of PhoP-driven GFP reporter signal, S. Typhimurium, dose response, PhoP regulon inhibitor project, purified and synthesized compounds, set 2 (AID 2831); assay type: functional
[26] = molecular target: Voltage-dependent T-type calcium channel subunit alpha-1H (Homo sapiens, UniProt O95180); assay: Cav3.2 T-type channel blockers, cell-based, SynthLib3 library, HEK293 Cav3.2, fluorescence (AID 493041); assay type: functional
Cannabinoid receptor 2 [27] = molecular target: T7, Cannabinoid receptor 2 (Homo sapiens, UniProt P34972); assay: SAR analysis of antagonists of the Cannabinoid Receptor 2 using an Image-Based Assay. [Related pubchem assays (depositor defined):AID2013, AID2026]; assay type: functional
Cannabinoid receptor 2 [28] = molecular target: T7, Cannabinoid receptor 2; assay: SAR analysis of agonists of the Cannabinoid Receptor 2 using an Image-Based Assay. [Related pubchem assays (depositor defined):AID2013, AID2026]; assay type: functional
Cannabinoid receptor 1 [29] = molecular target: T8, Cannabinoid receptor 1 (Homo sapiens, UniProt P21554); assay: SAR analysis of agonists of the Cannabinoid Receptor 1 using an Image-Based Assay - Set 2. [Related pubchem assays (depositor defined):AID2013, AID2026]; assay type: functional
[30] = molecular target: T9, G-protein coupled receptor 35 (Homo sapiens, UniProt Q9HC97); assay: SAR analysis of Agonists of the GPR35 Receptor using an Image-Based Assay - Set 2. [Related pubchem assays (depositor defined):AID2013, AID2026]; assay type: functional
[31] = molecular target: T10, G-protein coupled receptor 55 (Homo sapiens, UniProt Q9Y2T6); assay: GPR55 antagonist potency of analogs, SAR follow-up, imaging, U2OS, beta-arrestin-GFP, LPI agonist, set 2 (AID 2820); assay type: functional
[32] = molecular target: T9, G-protein coupled receptor 35; assay: SAR analysis of Antagonists of the GPR35 Receptor using an Image-Based Assay - Set 3. [Related pubchem assays (depositor defined):AID2013, AID2026]; assay type: functional
Cannabinoid receptor 1 [33] = molecular target: T8, Cannabinoid receptor 1; assay: SAR analysis of antagonists of the Cannabinoid Receptor 1 using an Image-Based Assay - Set 2. [Related pubchem assays (depositor defined):AID2013, AID2026]; assay type: functional
[34] = molecular target: T10, G-protein coupled receptor 55; assay: GPR55 antagonists blocking LPI-driven arrestin recruitment, primary screen, imaging, U2OS, beta-arrestin-GFP, LPI agonist (AID 2013); assay type: functional;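 also: antagonist potency measured as reduced agonist-driven arrestin aggregation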

T9 sequence (Q9HC97 whole entry): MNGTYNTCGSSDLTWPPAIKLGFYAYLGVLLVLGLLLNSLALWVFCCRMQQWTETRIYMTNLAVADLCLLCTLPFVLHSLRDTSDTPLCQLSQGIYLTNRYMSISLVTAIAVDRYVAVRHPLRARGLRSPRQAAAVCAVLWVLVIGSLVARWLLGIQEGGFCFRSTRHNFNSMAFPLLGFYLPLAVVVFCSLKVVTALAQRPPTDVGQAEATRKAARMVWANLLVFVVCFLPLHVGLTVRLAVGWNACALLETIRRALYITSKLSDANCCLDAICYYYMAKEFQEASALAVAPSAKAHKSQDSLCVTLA
T8 sequence (P21554 whole entry): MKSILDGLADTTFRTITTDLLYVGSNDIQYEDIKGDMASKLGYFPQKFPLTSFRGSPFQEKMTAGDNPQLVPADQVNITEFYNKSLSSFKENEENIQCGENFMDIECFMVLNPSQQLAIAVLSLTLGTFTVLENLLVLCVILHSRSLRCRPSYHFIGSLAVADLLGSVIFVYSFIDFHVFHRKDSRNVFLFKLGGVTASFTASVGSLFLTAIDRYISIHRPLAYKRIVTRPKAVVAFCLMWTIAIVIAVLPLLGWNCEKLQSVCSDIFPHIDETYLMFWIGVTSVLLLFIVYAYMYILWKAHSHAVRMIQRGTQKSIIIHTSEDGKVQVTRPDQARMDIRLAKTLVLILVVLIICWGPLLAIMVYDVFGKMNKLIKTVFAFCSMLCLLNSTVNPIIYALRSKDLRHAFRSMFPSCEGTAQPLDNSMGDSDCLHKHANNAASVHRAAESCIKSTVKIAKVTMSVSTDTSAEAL
T2 sequence (Q9UBE0 whole entry): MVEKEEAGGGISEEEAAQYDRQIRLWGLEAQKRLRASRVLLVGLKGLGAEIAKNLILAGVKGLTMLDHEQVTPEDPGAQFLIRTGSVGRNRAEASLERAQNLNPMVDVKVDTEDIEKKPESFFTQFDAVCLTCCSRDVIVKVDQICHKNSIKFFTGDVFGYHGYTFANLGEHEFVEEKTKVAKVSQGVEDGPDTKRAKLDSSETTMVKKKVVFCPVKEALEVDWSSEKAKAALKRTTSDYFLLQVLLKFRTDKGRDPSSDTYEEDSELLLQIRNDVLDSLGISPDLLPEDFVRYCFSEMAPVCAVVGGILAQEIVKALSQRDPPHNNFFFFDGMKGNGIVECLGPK
T2 sequence (Q9UBT2 whole entry): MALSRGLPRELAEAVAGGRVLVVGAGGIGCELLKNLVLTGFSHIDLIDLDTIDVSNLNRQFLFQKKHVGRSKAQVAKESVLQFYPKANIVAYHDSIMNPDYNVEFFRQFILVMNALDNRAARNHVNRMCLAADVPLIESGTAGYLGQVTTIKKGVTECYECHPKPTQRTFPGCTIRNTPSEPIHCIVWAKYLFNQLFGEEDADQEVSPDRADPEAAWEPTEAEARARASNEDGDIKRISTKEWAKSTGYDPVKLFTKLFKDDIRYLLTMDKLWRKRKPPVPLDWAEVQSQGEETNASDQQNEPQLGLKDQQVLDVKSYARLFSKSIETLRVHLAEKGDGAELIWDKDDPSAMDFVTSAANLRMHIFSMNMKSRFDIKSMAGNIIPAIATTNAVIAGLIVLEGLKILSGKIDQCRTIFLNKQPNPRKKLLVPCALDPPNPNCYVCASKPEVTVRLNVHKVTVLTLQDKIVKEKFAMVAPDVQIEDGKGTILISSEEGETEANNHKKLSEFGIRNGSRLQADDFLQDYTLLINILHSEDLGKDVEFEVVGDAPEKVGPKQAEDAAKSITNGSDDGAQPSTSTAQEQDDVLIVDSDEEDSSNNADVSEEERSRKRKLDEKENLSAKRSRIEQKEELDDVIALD
T7 sequence (P34972 whole entry): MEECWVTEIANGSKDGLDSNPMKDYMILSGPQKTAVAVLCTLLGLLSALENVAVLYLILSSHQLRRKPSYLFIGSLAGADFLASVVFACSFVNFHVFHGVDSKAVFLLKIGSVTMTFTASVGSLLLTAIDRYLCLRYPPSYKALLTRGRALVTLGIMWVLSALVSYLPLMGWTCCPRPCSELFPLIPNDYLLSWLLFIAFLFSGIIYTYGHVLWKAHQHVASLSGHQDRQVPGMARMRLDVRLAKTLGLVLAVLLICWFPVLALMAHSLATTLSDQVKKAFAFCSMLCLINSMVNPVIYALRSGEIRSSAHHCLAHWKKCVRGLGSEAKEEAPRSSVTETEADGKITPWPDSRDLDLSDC
T10 sequence (Q9Y2T6 whole entry): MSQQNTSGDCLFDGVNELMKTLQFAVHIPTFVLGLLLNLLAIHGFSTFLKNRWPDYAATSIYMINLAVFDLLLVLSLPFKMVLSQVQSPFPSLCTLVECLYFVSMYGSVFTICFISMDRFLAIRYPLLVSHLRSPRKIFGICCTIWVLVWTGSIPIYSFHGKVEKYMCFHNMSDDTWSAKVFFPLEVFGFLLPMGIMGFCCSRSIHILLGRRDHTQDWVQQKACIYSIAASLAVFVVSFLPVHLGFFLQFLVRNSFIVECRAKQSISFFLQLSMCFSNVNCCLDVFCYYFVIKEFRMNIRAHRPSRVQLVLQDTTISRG
Sequence of Large T antigen (P03070 whole entry): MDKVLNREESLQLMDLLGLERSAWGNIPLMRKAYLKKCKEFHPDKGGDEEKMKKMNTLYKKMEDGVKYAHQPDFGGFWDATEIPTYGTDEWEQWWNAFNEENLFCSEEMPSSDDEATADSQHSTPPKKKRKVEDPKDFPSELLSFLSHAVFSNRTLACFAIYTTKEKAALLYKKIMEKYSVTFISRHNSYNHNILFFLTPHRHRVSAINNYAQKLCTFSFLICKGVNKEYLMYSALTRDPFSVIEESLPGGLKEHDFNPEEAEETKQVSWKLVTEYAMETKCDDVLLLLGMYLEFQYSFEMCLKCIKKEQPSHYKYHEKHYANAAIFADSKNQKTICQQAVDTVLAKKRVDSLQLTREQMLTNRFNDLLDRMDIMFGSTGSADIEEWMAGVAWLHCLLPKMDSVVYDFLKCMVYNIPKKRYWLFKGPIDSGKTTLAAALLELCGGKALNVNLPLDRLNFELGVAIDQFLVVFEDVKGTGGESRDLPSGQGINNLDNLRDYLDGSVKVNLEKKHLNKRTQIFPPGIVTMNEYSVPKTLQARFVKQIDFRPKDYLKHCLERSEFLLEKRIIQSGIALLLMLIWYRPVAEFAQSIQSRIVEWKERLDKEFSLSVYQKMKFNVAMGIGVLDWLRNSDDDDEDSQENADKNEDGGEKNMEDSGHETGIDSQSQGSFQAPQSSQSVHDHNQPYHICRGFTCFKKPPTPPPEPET
Sequence of Kappa-type opioid receptor (P41145 whole entry): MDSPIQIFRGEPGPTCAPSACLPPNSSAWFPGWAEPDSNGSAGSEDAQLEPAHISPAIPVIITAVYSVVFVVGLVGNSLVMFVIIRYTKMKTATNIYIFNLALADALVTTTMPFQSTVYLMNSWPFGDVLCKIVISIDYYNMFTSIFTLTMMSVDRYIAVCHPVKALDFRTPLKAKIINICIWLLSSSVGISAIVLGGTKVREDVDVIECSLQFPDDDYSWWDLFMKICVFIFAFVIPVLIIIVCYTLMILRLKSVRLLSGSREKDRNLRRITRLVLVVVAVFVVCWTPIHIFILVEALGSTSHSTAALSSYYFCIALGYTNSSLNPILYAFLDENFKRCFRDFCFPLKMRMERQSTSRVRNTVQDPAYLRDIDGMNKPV
Sequence of Tyrosyl-DNA phosphodiesterase 2 (O95551 whole entry): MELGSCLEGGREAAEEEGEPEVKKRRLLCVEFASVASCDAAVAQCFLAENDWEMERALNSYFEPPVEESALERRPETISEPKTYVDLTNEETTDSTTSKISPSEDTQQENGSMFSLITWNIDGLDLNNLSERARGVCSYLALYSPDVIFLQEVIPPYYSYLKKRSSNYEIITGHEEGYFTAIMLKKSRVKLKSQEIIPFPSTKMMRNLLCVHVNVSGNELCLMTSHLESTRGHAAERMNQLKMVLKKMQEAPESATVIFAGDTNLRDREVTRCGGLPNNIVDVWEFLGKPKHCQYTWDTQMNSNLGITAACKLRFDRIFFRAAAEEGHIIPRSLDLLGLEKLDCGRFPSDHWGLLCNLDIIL
Sequence of Lysine-specific demethylase 4A (O75164 whole entry): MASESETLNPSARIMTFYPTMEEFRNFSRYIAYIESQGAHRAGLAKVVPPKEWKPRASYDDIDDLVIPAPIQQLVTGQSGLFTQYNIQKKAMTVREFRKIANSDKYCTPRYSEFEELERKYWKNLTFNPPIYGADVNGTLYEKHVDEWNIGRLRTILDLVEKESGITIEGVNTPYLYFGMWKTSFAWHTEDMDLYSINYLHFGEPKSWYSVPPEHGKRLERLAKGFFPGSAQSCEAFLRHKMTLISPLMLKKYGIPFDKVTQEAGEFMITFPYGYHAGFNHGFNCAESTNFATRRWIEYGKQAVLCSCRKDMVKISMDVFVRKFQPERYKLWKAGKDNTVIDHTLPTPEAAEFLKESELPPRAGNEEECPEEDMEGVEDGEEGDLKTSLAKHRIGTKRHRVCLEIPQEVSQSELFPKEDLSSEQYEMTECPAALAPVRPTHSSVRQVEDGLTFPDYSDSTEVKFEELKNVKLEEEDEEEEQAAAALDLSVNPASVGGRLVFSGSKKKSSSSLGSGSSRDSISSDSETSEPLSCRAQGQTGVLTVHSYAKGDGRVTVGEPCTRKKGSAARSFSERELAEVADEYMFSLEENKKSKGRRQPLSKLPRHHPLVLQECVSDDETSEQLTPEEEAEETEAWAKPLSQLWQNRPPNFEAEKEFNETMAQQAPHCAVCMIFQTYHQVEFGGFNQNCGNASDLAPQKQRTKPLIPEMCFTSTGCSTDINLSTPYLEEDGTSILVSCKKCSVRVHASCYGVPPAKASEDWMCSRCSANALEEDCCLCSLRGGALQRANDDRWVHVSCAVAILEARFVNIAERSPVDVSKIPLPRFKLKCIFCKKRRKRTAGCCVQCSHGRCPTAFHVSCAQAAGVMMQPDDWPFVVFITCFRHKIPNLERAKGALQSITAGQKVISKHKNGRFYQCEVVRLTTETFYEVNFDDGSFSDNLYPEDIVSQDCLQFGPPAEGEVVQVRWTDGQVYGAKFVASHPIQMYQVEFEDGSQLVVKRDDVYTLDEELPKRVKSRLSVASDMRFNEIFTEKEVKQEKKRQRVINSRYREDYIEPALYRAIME

## Clc1cccc(CN2CCc3c([nH]c4ccccc34)C2)c1Cl
CAAX prenyl protease 2
  AC50: 3.27 µM (active)
[1]
  AC50: 117 µM (active)
[2]
  AC50: 4.83 µM (active)

## NC1=NC(=O)/C(=C\c2ccco2)S1
[3]
  IC50: 19.8 µM (active)
SUMO-activating enzyme [4]
  IC50: 21.7 µM (active)
[5]
  IC50: 4.59 µM (active)
SUMO-activating enzyme [6]
  IC50: 2.89 µM (active)
[7]
  IC50: > 100 µM (inactive)
Large T antigen
  IC50: 67.2 µM (active)

## COc1ccc(/C=N/NC(=O)c2cc3c(OC)ccc(OC)c3[nH]2)cc1O
[8]
  EC50: 0.291 µM (active)
[9]
  EC50: 2.9 µM (active)
[10]
  EC50: 0.765 µM (inconclusive)
[11]
  EC50: 2.51 µM (inconclusive)
[12]
  EC50: 0.747 µM (active)
[13]
  EC50: 1.75 µM (active)
[14]
  EC50: 29.5 µM (inconclusive)
[15]
  EC50: 9.89 µM (active)
[16]
  EC50: 13.3 µM (active)

## Cc1[nH][nH]c(=O)c1C(c1ccc(-c2cccc(C(=O)O)c2)o1)c1c(C)[nH][nH]c1=O
[17]
  EC50: 18.1 µM (active)
[18]
  EC50: 5.56 µM (active)
[19]
  IC50: 11.9 µM (active)
[20]
  IC50: > 128 µM (inactive)
[21]
  IC50: 17.8 µM (active)
SUMO E1/E2
  IC50: 84.1 µM (active)

## Cc1ccc(C)c(Cn2c(C(=O)OC(C)C)cc3c2ccn3C)c1
[22]
  AC50: 21.9 µM (active)
[23]
  AC50: 11.6 µM (active)

## FC(F)(F)c1cc(CSc2nnc(-c3ccccn3)n2Cc2cccnc2)ccc1Cl
[24]
  EC50: 0.501 µM (active)

## S=C(NCc1ccc(Cl)cc1)Nc1ccc(Cl)cc1
[25]
  IC50: > 150 µM (active)

## O=C(COc1ccc(F)c(Cl)c1)N[C@H]1CCCN(CC2CCCC2)C1
[26]
  EC50: 10 µM (active)

## Cc1cccc2c1NC(=O)C2(c1ccc(O)cc1)c1ccc(O)cc1
Cannabinoid receptor 2 [27]
  IC50: > 32 µM (inactive)
Cannabinoid receptor 2 [28]
  EC50: > 32 µM (inactive)
Cannabinoid receptor 1 [29]
  EC50: > 32 µM (inactive)
[30]
  EC50: > 32 µM (inactive)
[31]
  IC50: 0.125 µM (active)
[32]
  IC50: 7.66 µM (active)
Cannabinoid receptor 1 [33]
  IC50: 31.3 µM (inactive)
[34]
  IC50: 2.53 µM (active)
